Test results as given in patent US3968207A, “Method of controlling fleas and ticks on cats and dogs” (priority 1975, dated 1976).
Several values for one entry are separate records, joined by “and”; a condition that tells them apart may be missing. Equal values may be shown once.

Test system: Ctenocephalides felis
Assay: 2% powder for control of flea infestations on dogs
Assay type: in vivo
Details: for Percent of Dogs with Control / Number of Dogs on Which Fleas were Controlled: 20 mg/kg 2% powder; for Average Dead in Treated / No. of Dead Fleas Recovered in 48 Hrs.: 20 mg/kg; for No. of Dead Fleas Recovered in 48 Hrs.: Trial 1, individual dogs
Description: An experiment was carried out to determine the activity of O,O,O',O'-tetramethyl O,O'-thiodi-p-phenylene phosphorothioate 2% powder for the control of Ctenocephalides felis infestations on dogs. A group of 40 dogs of mixed breeds were obtained from a licensed laboratory animal dealer and housed in individual cages. The 2% powder was formulated from a 25% dust concentrate containing […] O,O,O',O'-tetramethyl O,O'-thiodi-p-phenylene phosphorothioate, 24% celite 209 and 50% acidic kaolin. Talc was used to dilute the concentrate to 2% active ingredient. Each dog was infested with 100 1 day old adult C. felis 72 hours prior to treatment and reinfested on a weekly basis for 6 weeks beginning 7 days after treatment. Each dog was treated with 20 mg. actual drug per kg. body weight formulated as a 2% powder. Five or more dogs were treated with a blank powder and used as infested controls. Table XV summarizes average dead fleas in treated versus average dead fleas in control.

Compound: COP(=S)(OC)Oc1ccc(Sc2ccc(OP(=S)(OC)OC)cc2)cc1 [O,O,O',O'-tetramethyl O,O'-thiodi-p-phenylene phosphorothioate]
- Percent of Dogs with Control (week 0): 100%
- Percent of Dogs with Control (week 1): 100%
- Percent of Dogs with Control (week 2): 100%
- Percent of Dogs with Control (week 3): 100%
- Percent of Dogs with Control (week 4): 92.5%
- Percent of Dogs with Control (week 5): 80%
- Percent of Dogs with Control (week 6): 45%
- Number of Dogs on Which Fleas were Controlled (Combination of Test 1 & 2, week 0, of 40): 40 dogs
- Number of Dogs on Which Fleas were Controlled (Combination of Test 1 & 2, week 1, of 40): 40 dogs
- Number of Dogs on Which Fleas were Controlled (Combination of Test 1 & 2, week 2, of 40): 40 dogs
- Number of Dogs on Which Fleas were Controlled (Combination of Test 1 & 2, week 3, of 40): 40 dogs
- Number of Dogs on Which Fleas were Controlled (Combination of Test 1 & 2, week 4, of 40): 37 dogs
- Number of Dogs on Which Fleas were Controlled (Combination of Test 1 & 2, week 5, of 40): 32 dogs
- Number of Dogs on Which Fleas were Controlled (Combination of Test 1 & 2, week 6, of 40): 18 dogs
- Number of Dogs on Which Fleas were Controlled (Experiment 1, week 0, of 20): 20 dogs
- Number of Dogs on Which Fleas were Controlled (Experiment 1, week 1, of 20): 20 dogs
- Number of Dogs on Which Fleas were Controlled (Experiment 1, week 2, of 20): 20 dogs
- Number of Dogs on Which Fleas were Controlled (Experiment 1, week 3, of 20): 20 dogs
- Number of Dogs on Which Fleas were Controlled (Experiment 1, week 4, of 20): 17 dogs
- Number of Dogs on Which Fleas were Controlled (Experiment 1, week 5, of 20): 14 dogs
- Number of Dogs on Which Fleas were Controlled (Experiment 1, week 6, of 20): 5 dogs
- Number of Dogs on Which Fleas were Controlled (Experiment 2, week 0, of 20): 20 dogs
- Number of Dogs on Which Fleas were Controlled (Experiment 2, week 1, of 20): 20 dogs
- Number of Dogs on Which Fleas were Controlled (Experiment 2, week 2, of 20): 20 dogs
- Number of Dogs on Which Fleas were Controlled (Experiment 2, week 3, of 20): 20 dogs
- Number of Dogs on Which Fleas were Controlled (Experiment 2, week 4, of 20): 20 dogs
- Number of Dogs on Which Fleas were Controlled (Experiment 2, week 5, of 20): 18 dogs
- Number of Dogs on Which Fleas were Controlled (Experiment 2, week 6, of 20): 13 dogs
- Average Dead in Treated (Test 1, week 0, control 6.2): 31.5
- Average Dead in Treated (Test 1, week 2, control 4.8): 40.4
- Average Dead in Treated (Test 1, week 6, control 3.2): 18.0
- Average Dead in Treated (Test 2, week 0, control 11.8): 43.5
- No. of Dead Fleas Recovered in 48 Hrs. (week 0): 18 and 44 and 41 and 34 and 26 and 38 and 28 and 50 and 21 and 22 and 40 and 24 and 25
- No. of Dead Fleas Recovered in 48 Hrs. (week 1): 30 and 44 and 53 and 43 and 14 and 37 and 26 and 74 and 49 and 57 and 33 and 31 and 38
- No. of Dead Fleas Recovered in 48 Hrs. (week 2): 54 and 39 and 55 and 40 and 27 and 64 and 31 and 44 and 38 and 32 and 43 and 50 and 42
- No. of Dead Fleas Recovered in 48 Hrs. (week 3): 37 and 36 and 47 and 43 and 35 and 42 and 33 and 63 and 44 and 60 and 29
- No. of Dead Fleas Recovered in 48 Hrs. (week 4): 43 and 46 and 48 and 25 and 8 and 21 and 35 and 61 and 24 and 34 and 6 and 26 and 42
- No. of Dead Fleas Recovered in 48 Hrs. (week 5): 35 and 63 and 48 and 16 and 5 and 21 and 11 and 36 and 14 and 46 and 39
- No. of Dead Fleas Recovered in 48 Hrs. (week 6): 5 and 49 and 63 and 10 and 3 and 1 and 23 and 19 and 6 and 7 and 27 and 35
